Experimental data: patent publication US6046329A, “Uracil derivatives” (Byk Gulden Lomberg Chemische Fabrik GmbH, priority 1994, dated 2000)

What was measured:
α1A receptor = target: T1, α1A receptor (Rattus norvegicus, UniProt P43140); assay: Radioligand binding with [3H]prazosine, affinity for α1A receptor subtype; details: membranes from rat brain cortex, IC50 corrected according to Cheng and Prusoff; for Ki: read-out: Receptor affinity α1A, expressed in pKI values (converted)
T1 construct: membranes from rat brain cortex; from tissue; host or cells: rat brain cortex membranes
T1 sequence (P43140 1-466): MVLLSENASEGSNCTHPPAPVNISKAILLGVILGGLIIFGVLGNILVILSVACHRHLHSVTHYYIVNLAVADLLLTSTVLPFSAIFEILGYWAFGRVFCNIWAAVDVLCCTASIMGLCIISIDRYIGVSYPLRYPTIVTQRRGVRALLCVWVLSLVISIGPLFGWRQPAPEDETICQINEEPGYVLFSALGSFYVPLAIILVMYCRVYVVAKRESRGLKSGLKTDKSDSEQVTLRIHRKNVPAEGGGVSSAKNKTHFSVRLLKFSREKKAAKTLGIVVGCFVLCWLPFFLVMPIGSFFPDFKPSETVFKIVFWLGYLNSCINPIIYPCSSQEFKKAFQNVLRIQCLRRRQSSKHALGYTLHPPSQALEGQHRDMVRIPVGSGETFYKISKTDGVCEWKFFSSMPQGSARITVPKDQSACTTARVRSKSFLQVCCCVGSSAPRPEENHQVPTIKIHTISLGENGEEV
Experimental: (§1) The affinity of substances for α1 receptor subtypes was determined in radioligand binding studies using [^3 H]prazosine as a radioligand. 50-200 μg of membranes from rat brain cortex were incubated in a total volume of 0.5-1 ml with [^3 H]prazosine (0.2 to 0.5 nmol/l) in the presence of rising concentrations of substances. The incubation buffer used was 50 mmol/l tris/HCl pH 7.5, 1 mmol/l EDTA, 0.1 mmol/l PMSF. The nonspecific binding was determined in separate batches in the presence of 10 μmol/l of phentolamine or 1 μmol/l of prazosine. After 1 h at 37° C., the bound radioactivity was separated from the free radioactivity by rapid filtration of the incubation batch at 0° C. through glass fiber filters. The filters were washed twice with 3.5 ml each of cold filtration buffer (50 mmol/l tris/HCl pH 7.4, 10 mmol/l MgCl2, 10% polyethylene glycol 6000). The filter-bound radioactivity was determined by liquid scintillation counting. Substances with subtype selectivity for the α1 receptor subtypes were tested again in the presence of 3 nmol/l of WB 4101. WB4101 blocks the binding of [^3 H]prazosine to the α1A receptor subtype and the remaining binding corresponds to that to the α1B receptor.
(§2) For each substance, dose-response curves were plotted by means of nonlinear regression using the Inplot program (GraphPad, Sorento, Calif., USA). IC50 values were corrected by the concentration of the radioligand employed according to the formula of Cheng and Prusoff. The resulting KI values (see following table) represent the affinity of the respective substance for the tested receptor. The compounds according to the invention investigated according to the model illustrated in greater detail above have been provided in the following table with numbers which correspond to the numbers of these compounds in the examples.

α1B receptor = target: T2, α1B receptor (Rattus norvegicus, UniProt P15823); assay: Radioligand binding with [3H]prazosine (in the presence of WB 4101), affinity for α1B receptor subtype; details: membranes from rat brain cortex, subtype-selective substances tested again in the presence of 3 nmol/l WB 4101, Cheng and Prusoff; for Ki: read-out: Receptor affinity α1B, expressed in pKI values (converted)
T2 construct: membranes from rat brain cortex; from tissue; host or cells: rat brain cortex membranes
T2 sequence (P15823 1-515): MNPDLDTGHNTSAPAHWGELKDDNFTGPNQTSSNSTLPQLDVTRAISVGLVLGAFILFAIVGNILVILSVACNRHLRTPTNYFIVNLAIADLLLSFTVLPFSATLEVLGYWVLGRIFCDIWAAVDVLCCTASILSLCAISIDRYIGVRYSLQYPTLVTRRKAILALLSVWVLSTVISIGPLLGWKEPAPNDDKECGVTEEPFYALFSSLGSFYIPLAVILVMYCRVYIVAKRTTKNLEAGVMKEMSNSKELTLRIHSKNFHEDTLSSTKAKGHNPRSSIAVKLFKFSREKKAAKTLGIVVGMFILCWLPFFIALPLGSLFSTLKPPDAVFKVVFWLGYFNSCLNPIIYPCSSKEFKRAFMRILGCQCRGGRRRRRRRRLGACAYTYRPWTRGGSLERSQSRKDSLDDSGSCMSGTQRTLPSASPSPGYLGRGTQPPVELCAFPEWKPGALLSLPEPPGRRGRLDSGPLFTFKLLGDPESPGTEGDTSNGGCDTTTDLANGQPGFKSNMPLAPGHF
Experimental: as §1, §2

5-HT1A receptor = target: T3, 5-HT1A receptor (Sus scrofa, UniProt A0A4X1UTF5); assay: Radioligand binding with [3H]8-OH-DPAT, affinity for 5-HT1A receptor; details: membranes from pig brain cortex, IC50 corrected according to Cheng and Prusoff; for Ki: read-out: Receptor affinity 5-HT1A, expressed in pKI values (converted)
T3 construct: membranes from pig brain cortex; from tissue; host or cells: pig brain cortex membranes
T3 sequence (A0A4X1UTF5 1-422): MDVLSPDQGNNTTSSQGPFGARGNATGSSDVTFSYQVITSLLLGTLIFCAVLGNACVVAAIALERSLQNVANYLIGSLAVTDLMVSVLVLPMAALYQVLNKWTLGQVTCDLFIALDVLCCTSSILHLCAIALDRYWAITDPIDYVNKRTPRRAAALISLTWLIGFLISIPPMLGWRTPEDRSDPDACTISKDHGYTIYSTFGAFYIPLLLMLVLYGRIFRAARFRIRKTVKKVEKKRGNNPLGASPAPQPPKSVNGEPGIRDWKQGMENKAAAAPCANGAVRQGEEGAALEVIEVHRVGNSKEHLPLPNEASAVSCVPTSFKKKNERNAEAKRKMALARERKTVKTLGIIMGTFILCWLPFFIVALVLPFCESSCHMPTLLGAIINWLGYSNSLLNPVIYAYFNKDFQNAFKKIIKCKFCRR
Experimental: The affinity of substances for the 5-HT1A receptor was determined in radioligand binding studies using [^3 H]8-OH-DPAT as a radioligand. 50-150 μg of membranes from pig brain cortex were incubated in a total volume of 0.25-0.5 ml with [^3 H]8-OH-DPAT (0.2 to 0.4 nmol/l) in the presence of rising concentrations of substances. The incubation buffer used was 50 mmol/l tris/HCl pH 8.2, 1 mmol/l MnCl2. The nonspecific binding was determined in separate batches in the presence of 10 μmol/l of 5-HT. After 30 min at 23° C., the bound radioactivity was separated from the free radioactivity by rapid filtration of the incubation batch at 0° C. through glass fiber filters. The filters were washed twice with 3.5 ml each of cold filtration buffer (50 mmol/l tris/HCl pH 7.4, 10 mmol/l MgCl2, 10% polyethylene glycol 6000). The filter-bound radioactivity was determined by liquid scintillation counting.
as §2

Row | SMILES | Ki (α1A receptor) | Ki (α1B receptor) | Ki (5-HT1A receptor) | Receptor affinity α1A, expressed in pKI values (α1A receptor) | Receptor affinity α1B, expressed in pKI values (α1B receptor) | Receptor affinity 5-HT1A, expressed in pKI values (5-HT1A receptor)
1 | CCOc1cc(F)ccc1N1CCN(CCCNc2c(Cc3c(NCCCN4CCN(c5ccc(F)cc5OCC)CC4)n(C)c(=O)n(C)c3=O)c(=O)n(C)c(=O)n2C)CC1 [Compound 4, Bis[1,3-dimethyl-6-[[3-[4-(2-ethoxy-4-fluorophenyl)-1-piperazinyl]propyl]amino]-2,4(1H,3H)-pyrimidinedione-5,5'-yl]methane] | 1 nM | 1 nM | 39.8 nM | – | – | –
2 | COc1cc(NC(C)=O)ccc1N1CCN(CCCNc2c(C)c(=O)n(C)c(=O)n2C)CC1 [Compound 21, 1,3,5-Trimethyl-6-[[3-[4-(4-acetylamino-2-methoxyphenyl)-1-piperazinyl]propyl]amino]-2,4(1H,3H)pyrimidinedione] | > 10000 nM | > 10000 nM | 5.01 nM | – | – | –
3 | Cc1c(NCCCN2CCN(c3cccc4c3OCC(CO)O4)CC2)n(C)c(=O)n(C)c1=O (stereo not drawn) [Compound 9, 1,3,5-Trimethyl-6-[[3-[4-((2,3-dihydro-2-hydroxymethyl)-1,4-benzodioxin-5-yl)-1-piperazinyl]propyl]amino]-2,4(1H,3H)-pyrimidinedione] | 2 nM | 1580 nM | 0.2 nM | – | – | –
4 | COc1cc(N)ccc1N1CCN(CCCNc2c(C)c(=O)n(C)c(=O)n2C)CC1 [Compound 20, 1,3,5-Trimethyl-6-[[3-[4-(4-amino-2-methoxyphenyl)-1-piperazinyl]propyl]amino]-2,4(1H,3H)-pyrimidinedione] | 100 nM | 6310 nM | 2 nM | – | – | –
5 | CON=Cc1c(NCCCN2CCN(c3ccccc3OC)CC2)n(C)c(=O)n(C)c1=O [Compound 15, 1,3-Dimethyl-5-methoxyiminomethyl-6-[[3-[4-(2-methoxyohenyl)-1-piperazinyl]propyl]amino]-2,4(1H,3H)-pyrimidinedione] | 5.01 nM | 126 nM | 1.58 nM | – | – | –
6 | COc1ccccc1N1CCN(CCCNc2c(Cc3c(NCCCN4CCN(c5ccccc5OC)CC4)n(C)c(=O)n(C)c3=O)c(=O)n(C)c(=O)n2C)CC1 [Compound 2] | 0.398 nM | 0.398 nM | 12.6 nM | – | – | –
7 | C=CCc1c(NCCCN2CCN(c3ccccc3OC(F)(F)C(F)F)CC2)n(C)c(=O)n(C)c1=O [Compound 11, 5-Allyl-1,3-dimethyl-6-[[3-[4-(2-tetrafluoro-ethoxyphenyl)-1-piperazinyl]propyl]amino]-2,4(1H,3H)-pyrimidinedione] | – | – | – | 9.6 | 7.9 | 9.3
8 | COc1cc(Br)c(Br)cc1N1CCN(CCCNc2c(C)c(=O)n(C)c(=O)n2C)CC1 [Compound 1, 1,3,5-Trimethyl-6-[[3-[4-(3,4-dibromo-6-methoxy-phenyl)-1-piperazinyl]propyl]amino]-2,4(1H,3H)-pyrimidinedione] | 5.01 nM | 5.01 nM | 1.26 nM | – | – | –
9 | CCOc1ccccc1N1CCN(CCCNc2c(CCC#N)c(=O)n(C)c(=O)n2C)CC1 [Compound 3, 5-Cyanoethyl-1,3-dimethyl-6-[[3-[4-(2-ethoxyphenyl)-1-piperazinyl]propyl]amino]-2,4(1H,3H)-pyrimidinedione] | 0.501 nM | 63.1 nM | 0.398 nM | – | – | –
